According to patent US20120202822A1, “COMBINATION” (priority 2009, published 2012):
Values belong to the compound of their own block, whether it stands above or below them.

How the values were obtained:
Experiment in all cases: Fixed Ratio Drug Combination Assay, cell proliferation (CellTiter Glo)
Format in all cases: cell-based, human
NCIH630 = conditions: for Ymin/T0: 72 hours; for IC50: Homo sapiens, NCI-H630, 72 hours, read-out: gIC50
Description: (§1) Combination drug tests with Compounds A and B were conducted using a panel of cell lines from human colon cancers (n=25) (Table 1). Cell lines were purchased commercially [from ATCC (Manassas, Va., USA) or DSMZ (Braunschweig, Germany)] and grown in RPMI-1640 supplemented with 2 mM glutamine, 1 mM sodium pyruvate and 10% fetal bovine serum and maintained at 37° C. and 5% CO2 in a humid incubator.
(§2) The dilution design of the Fixed Ratio Drug Combination Assay can be seen in FIG. 1. First, the test compounds were prepared as 10 mM stocks in 100% dimethyl sulfoxide (DMSO). Further dilutions of the compounds were made with DMSO. The first test compound (designated as Compound A) is diluted horizontally in a 96 well microtiter plate in rows B-E using a 3-fold dilution series for 10 dilution points. A second test compound (designated as Compound B) is diluted horizontally in a separate 96 well microtiter plate in rows D-G using a 3-fold dilution series for 10 dilution points. The two compounds are combined using equal volumes from each drug plate into cell culture media. […] Compound A is individually titrated in rows B and C, while only Compound B is dosed in rows F and G of the plate. An additional 1:10 dilution of the drugs is performed in cell culture media prior to addition to the cells. Drug addition to the cells results in a further 1:2 dilution of drugs. The total dilution of the drug plate to the cells is […]. The final dosing concentration range for Compound B was 0.1-1000.0 nM and was 0.5-10000.0 nM for Compound A. The positive control consists of culture media with DMSO at 0.1% and cells and no drug. The negative control consists of culture media with DMSO at 0.1%. solution.
(§3) Assays were performed in 96 well microtiter plates with appropriate seeding densities estimated from previous studies of each cell line. Following dosing, the cell lines are incubated at 37° C., 5% CO2 in humid air for 72 hours. Cell proliferation was measured using the CellTiter Glo (Promega Corporation, Madison, Wis., USA) reagent according to the manufacturer's protocol. The plates are treated with CellTiter Glo solution and are analyzed for RLU (relative light units) using a Molecular Devices SpectraMax M5 (Sunnyvale, Calif., USA) plate reader.
(§4) Results are expressed as a percentage of the number of cells present at the time of compound addition value (T0) and plotted against compound(s) concentration. The percent intensity values were used in model 205 of the IDBS XLfit plug-in for Microsoft Excel to calculate gIC50 values using a 4 parameter logistical fit. Background correction is made by subtraction of values from wells containing no cells. The midpoint of the growth window (the gIC50) falls half way between the number of cells at the time of compound addition and the growth of control cells treated with DMSO at 72 hrs. The number of cells at time zero is divided from the intensity value at the bottom of the response curve (Ymin) to generate a measure for cell death (Ymin/T0). A value below 1 for Ymin/T0 indicates stronger potency with the treatment when compared to higher values. For duplicate assays, all response metrics are averaged for presentation.
(§5) Three independent metrics were used to analyze the combinatorial effects on growth inhibition of Compound B and Compound A. • 1. Excess over Highest Single Agent (EOHSA)—One standard criterion for measuring drug combinatorial effects is analyzing the effects on cell growth inhibition in absolute terms. In this case, the combination of drugs is compared to the more responsive of the two individual treatments (single agent). For each combination experiment, the percent effect relative to the highest single agent for each dose along the curve is generated. This measure of “Excess of Highest Single Agent (EOHSA)” is one of the criteria used for evaluating synergy of drug combinations. […]

RKO = conditions: 72 hours; for IC50: Homo sapiens, read-out: gIC50
Description: as §1, §2, §3, §4, §5

SW948 = conditions: 72 hours; for IC50: Homo sapiens, read-out: gIC50
Description: as §1, §2, §3, §4, §5

SW48 = conditions: 72 hours; for IC50: Homo sapiens, read-out: gIC50
Description: as §1, §2, §3, §4, §5

HCC2998 = conditions: for Ymin/T0: 72 hours; for IC50: Homo sapiens, HCC 2998, 72 hours, read-out: gIC50
Description: as §1, §2, §3, §4, §5

NCIH716 = conditions: for Ymin/T0: 72 hours; for IC50: Homo sapiens, NCI-H716, 72 hours, read-out: gIC50
Description: as §1, §2, §3, §4, §5

LS1034 = conditions: for Ymin/T0: 72 hours; for IC50: Homo sapiens, LS-1034, 72 hours, read-out: gIC50
Description: as §1, §2, §3, §4, §5

DLD1 = conditions: for Ymin/T0: 72 hours; for IC50: Homo sapiens, DLD-1, 72 hours, read-out: gIC50
Description: as §1, §2, §3, §4, §5

SW480 = conditions: 72 hours; for IC50: Homo sapiens, read-out: gIC50
Description: as §1, §2, §3, §4, §5

HCT8 = conditions: for Ymin/T0: 72 hours; for IC50: Homo sapiens, HCT-8, 72 hours, read-out: gIC50
Description: as §1, §2, §3, §4, §5

COLO320DM = conditions: 72 hours; for IC50: Homo sapiens, COLO 320DM, read-out: gIC50
Description: as §1, §2, §3, §4, §5

HCT116 = conditions: for Ymin/T0: 72 hours; for IC50: Homo sapiens, HCT-116, 72 hours, read-out: gIC50
Description: as §1, §2, §3, §4, §5

KM12 = conditions: 72 hours; for IC50: Homo sapiens, read-out: gIC50
Description: as §1, §2, §3, §4, §5

NCIH508 = conditions: for Ymin/T0: 72 hours; for IC50: Homo sapiens, NCI-H508, 72 hours, read-out: gIC50
Description: as §1, §2, §3, §4, §5

SW1463 = conditions: 72 hours; for IC50: Homo sapiens, read-out: gIC50
Description: as §1, §2, §3, §4, §5

SW837 = conditions: 72 hours; for IC50: Homo sapiens, read-out: gIC50
Description: as §1, §2, §3, §4, §5

COLO205 = conditions: for Ymin/T0: 72 hours; for IC50: Homo sapiens, COLO 205, 72 hours, read-out: gIC50
Description: as §1, §2, §3, §4, §5

NCIH747 = conditions: for Ymin/T0: 72 hours; for IC50: Homo sapiens, NCI-H747, 72 hours, read-out: gIC50
Description: as §1, §2, §3, §4, §5

LS174T = conditions: 72 hours; for IC50: Homo sapiens, read-out: gIC50
Description: as §1, §2, §3, §4, §5

HCT15 = conditions: for Ymin/T0: 72 hours; for IC50: Homo sapiens, HCT-15, 72 hours, read-out: gIC50
Description: as §1, §2, §3, §4, §5

SW1417 = conditions: 72 hours; for IC50: Homo sapiens, read-out: gIC50
Description: as §1, §2, §3, §4, §5

- IC50 (SW948): > 10000 nM
- IC50 (SW48): > 10000 nM
- IC50 (HCC2998): 2400 nM
- IC50 (DLD1): 199 nM
- IC50 (SW480): > 10000 nM
- IC50 (HCT8): > 10000 nM
- IC50 (COLO320DM): > 10000 nM
- IC50 (HCT116): > 10000 nM
- IC50 (SW1463): > 10000 nM
- IC50 (SW837): > 10000 nM
- IC50 (COLO205): 7.3 nM
- IC50 (HCT15): > 10000 nM
- IC50 (SW1417): 246 nM
Structure (SMILES): CC(C)(C)c1nc(-c2cccc(NS(=O)(=O)c3c(F)cccc3F)c2F)c(-c2ccnc(N)n2)s1 [Compound A, N-{3-[5-(2-amino-4-pyrimidinyl)-2-(1,1-dimethylethyl)-1,3-thiazol-4-yl]-2-fluorophenyl}-2,6-difluorobenzenesulfonamide]
- Ymin/T0 (NCIH630): 1.9
- IC50 (NCIH630): 5000 nM
- Ymin/T0 (RKO): 6.7
- IC50 (RKO): 8950 nM
- Ymin/T0 (SW948): 1.5
- Ymin/T0 (SW48): 4.7
- Ymin/T0 (HCC2998): 2.8
- Ymin/T0 (NCIH716): 1.3
- IC50 (NCIH716): > 10000 nM
- Ymin/T0 (LS1034): 1.9
- IC50 (LS1034): > 10000 nM
- Ymin/T0 (DLD1): 6.7
- Ymin/T0 (SW480): 2.9
- Ymin/T0 (HCT8): 9.2
- Ymin/T0 (COLO320DM): 4.9
- Ymin/T0 (HCT116): 9.2
- Ymin/T0 (KM12): 8.8
- IC50 (KM12): > 10000 nM
- Ymin/T0 (NCIH508): 2.1
- IC50 (NCIH508): 366 nM
- Ymin/T0 (SW1463): 1.9
- Ymin/T0 (SW837): 2.3
- Ymin/T0 (COLO205): 1.2
- Ymin/T0 (NCIH747): 1.3
- IC50 (NCIH747): > 10000 nM
- Ymin/T0 (LS174T): 7.0
- IC50 (LS174T): > 10000 nM
- Ymin/T0 (HCT15): 6.1
- Ymin/T0 (SW1417): 1.1

- IC50 (SW948): 0.3 nM
- IC50 (SW48): 2.6 nM
- IC50 (HCC2998): 4.7 nM
- IC50 (DLD1): 20.5 nM
- IC50 (SW480): 5.4 nM
- IC50 (HCT8): 8.4 nM
- IC50 (COLO320DM): 4.7 nM
- IC50 (HCT116): 34.2 nM
- IC50 (SW1463): 8.2 nM
- IC50 (SW837): 6.4 nM
- IC50 (COLO205): 12 nM
- IC50 (HCT15): 7.2 nM
- IC50 (SW1417): 1.4 nM
Structure (SMILES): COc1ncc(-c2ccc3nccc(-c4ccnnc4)c3c2)cc1NS(=O)(=O)c1ccc(F)cc1F [Compound B, 2,4-difluoro-N-{2-(methyloxy)-5-[4-(4-pyridazinyl)-6-quinolinyl]-3-pyridinyl}benzenesulfonamide]
- Ymin/T0 (NCIH630): 0.9
- IC50 (NCIH630): 18.3 nM
- Ymin/T0 (RKO): 3.0
- IC50 (RKO): 10.9 nM
- Ymin/T0 (SW948): 0.4
- Ymin/T0 (SW48): 0.4
- Ymin/T0 (HCC2998): 0.9
- Ymin/T0 (NCIH716): 0.7
- IC50 (NCIH716): 1.1 nM
- Ymin/T0 (LS1034): 0.5
- IC50 (LS1034): 1.4 nM
- Ymin/T0 (DLD1): 1.8
- Ymin/T0 (SW480): 1.1
- Ymin/T0 (HCT8): 1.6
- Ymin/T0 (COLO320DM): 1.5
- Ymin/T0 (HCT116): 4.1
- Ymin/T0 (KM12): 1.4
- IC50 (KM12): 22.1 nM
- Ymin/T0 (NCIH508): 0.5
- IC50 (NCIH508): 1.2 nM
- Ymin/T0 (SW1463): 0.9
- Ymin/T0 (SW837): 0.8
- Ymin/T0 (COLO205): 1.4
- Ymin/T0 (NCIH747): 0.5
- IC50 (NCIH747): 2.7 nM
- Ymin/T0 (LS174T): 0.8
- IC50 (LS174T): 34.1 nM
- Ymin/T0 (HCT15): 2.4
- Ymin/T0 (SW1417): 1.3
